We go through 2 molecules from US20230248731A1, “COMPOSITION AND MEDICAMENT OF PALBOCICLIB ISETHIONATE” (NANJING GRITPHARMA CO., LTD., priority 2020, published 2023).

As usually defined, the Solubility is the dissolved amount per volume that the medium holds. Low readings indicate a poorly soluble substance, high ones a readily soluble substance.

Series [1] in a line: Solubility of palbociclib isethionate at different pH values. It counts as physicochemical. The source says:
First, the applicant has studied the solubility of palbociclib isethionate in water, a hydrochloric acid solution with a pH of 1.0, a phosphate buffer with a pH of 6.8 and an acetate buffer with a pH of 4.5 (as shown in Table 3). […] However, the palbociclib isethionate enters the intestinal tract rapidly on an empty stomach, and the pH environment becomes neutral and weakly alkaline. As the solubility of the palbociclib isethionate is extremely low at a pH of 6.8, absorption of the palbociclib isethionate will be affected by the solubility, which is extremely unfavorable to the absorption and utilization of the palbociclib isethionate.

Series [2] is described as follows: Pharmacokinetics of palbociclib isethionate after single oral administration in 125 mg (Pfizer study 1036). It counts as in vivo, human. The conditions noted are these: single oral 125 mg. The method, then: Existing clinical tests have also shown that the palbociclib isethionate has different bioavailability values before or after a meal. Pharmacokinetics of the palbociclib isethionate in healthy subjects after single administration were evaluated by Pfizer Pharmaceutical, an original research company. Different effects are achieved when the medicine is taken before or after a meal. Compared with administration before a meal, administration after a meal has the advantages that the Cmax value is increased by 7%, and the AUCinf value is increased by about 9%. The food prolongs the retention time of the medicine in the gastric juice, so that the bioavailability is improved. The basic reason is that as the pH environment in the stomach and intestines is different, the palbociclib isethionate has inconsistent dissolution and release conditions, resulting in different bioavailability values. Therefore, when the dissolution of the palbociclib isethionate can be improved under neutral and weakly alkaline conditions, great benefits will be brought to application of the palbociclib isethionate to the treatment of related diseases in the human body.

For series [3] the following is noted: background statement; cited from earlier work.

On to `CC(=O)c1c(C)c2cnc(Nc3ccc(N4CCNCC4)cn3)nc2n(C2CCCC2)c1=O.O=S(=O)(O)CCO` [palbociclib isethionate], for which the Solubility in series [1] (acetate buffer pH 4.5) is on record as 84.7 mg/mL; in series [1] (hydrochloric acid solution pH 1.0), 90.7 mg/mL; in series [1] (phosphate buffer pH 6.8) it was 0.04 mg/mL; in series [1] (water), 84.8 mg/mL. In addition, the “Solubility (in words)” value in series [1] (pH 6.8) is reported as “extremely low”. Further, the “Increase of AUCinf, administration after a meal compared with before a meal” value in series [2] is on record as “about 9%”. In series [2], the “Increase of Cmax, administration after a meal compared with before a meal” value was 7%.

For the molecule `CC(=O)c1c(C)c2cnc(Nc3ccc(N4CCNCC4)cn3)nc2n(C2CCCC2)c1=O` [palbociclib in a free alkali form, palbociclib], the “Solubility in water (in words)” value in series [3] was “poor solubility in water”.
